In US8685924B2, “Preventives/remedies for stress urinary incontinence and method of screening the same” (Takeda Pharmaceutical Company Limited, priority 2004, dated 2014):

What was measured:
Format in all cases: in vivo, rat
[1] = test system: urethane-anesthetized female rats; test: Leak point pressure by direct compressing of the bladder (Example 4); conditions: for leak point pressure after drug administration / leak point pressure increase / leak point pressure before drug administration: i.v., mean ± SEM; for leak point pressure after drug administration: 20 min later; for leak point pressure before drug administration: baseline; for effect on leak point pressure: intravenous administration
Method in brief: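 Spinal-cord-transected (T8-9), urethane-anesthetized SD female rats (180-350 g); bladder filled with 0.1% Evans blue (0.4 mL) and compressed bilaterally until leakage, intravesical pressure at leakage taken as leak point pressure. Drugs given i.v., re-measured 20 min later; for antagonism, RS-102221 or SB221284 given i.v. 5 min before WAY-161503/WAY-163909, reading 10 min after agonist.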

[2] = test system: urethane-anesthetized female rats; test: Urethral contractile responses induced by intravesical pressure increase (Example 5); conditions: for urethral contractile responses before administration: baseline; for urethral contractile responses before administration / urethral contractile responses after administration: mean ± SEM of 5 cases; for urethral contractile responses after administration: 5 min later; for effect on urethral contractile responses during elevation of intravesical pressure: intravenous, duloxetine 10 mg/kg, WAY161503 0.3 mg/kg
Protocol: (§1) SD female rats (body weight 180-350 g) were anesthetized with urethane (Wako Pure Chemical Industries, Ltd.), and the spinal cord was transected at T8-9 level to eliminate the reflex voiding.
Halothane (Takeda Pharmaceutical Company Limited) anesthesia was added when necessary during operation. After laparotomy, the bladder neck was tied with a suture thread and then a catheter (PE-90, Clay Adams) was inserted into the bladder and secured with a ligature. The other end of the bladder catheter was connected to a pressure transducer and saline storage reservoir (60 ml syringe) via a three-way stopcock. A microchip-transducer-catheter (SPR-524, Millar Instruments Inc.) was inserted from the meatus urethra. toward the bladder. Using the scale written on the catheter surface, the transducer part was set in the urethra at 12.5-15.0 mm from the urethral orifice with its side-mounted sensor facing the inner urethral surface in the 3 o'clock position.
Topical pressure changes in the urethra (hereinafter to be conveniently indicated as intraurethral pressure) measured by a microchip-transducer were input in a computer via an amplifier (blood pressure amplification unit AP-641G; NIHON KODEN) and an analog-to-digital converter (MP-100; biopack; sampled at 500 Hz) and recorded on a hard disc. […] The response of the urethra induced by the intravesical pressure increase was measured 3 times and the average of the final two measures was taken as the value before the drug administration.
The evaluation parameters were a resting intraurethral pressure and a reflex urethral contractile responses. An average intraurethral pressure per 1 sec was calculated, and the value immediately before intravesical pressure increase was taken as the resting intraurethral pressure, and the value obtained by subtracting the resting intraurethral pressure from the maximum value during intravesical pressure increase was taken as the urethral responses. After measurement of the response before drug administration, WAY-161503 (0.3 mg/kg), which is a serotonin 5-HT2C receptor agonist, or duloxetine (10 mg/kg) was intravenously administered, the intravesical pressure was increased again 5 min later, and the responses of the urethra were measured. The both drugs were dissolved in DMA-PEG400 (1:1), and administered at 0.5 ml/kg.

[3] = test system: urethane-anesthetized female rats; test: Leak point pressure by intravesical pressure-clamp method (Example 6); conditions: for leak point pressure after drug administration / leak point pressure before drug administration: i.v., mean ± SEM; for leak point pressure after drug administration: 10 min later; for leak point pressure before drug administration: baseline; for effect on leak point pressure: intravesical pressure-clamp method
Protocol: as §1
Halothane (Takeda Pharmaceutical Company Limited) anesthesia was added when necessary during operation. After laparotomy, the bladder neck was tied with a suture thread and then a catheter (PE-90, Clay Adams) was inserted into the bladder and secured with a ligature. The other end of the bladder catheter was connected to a pressure transducer and saline storage reservoir (60 ml syringe) via a three-way cock.
Changes in the intravesical pressure measured by a transducer were input in a computer via an amplifier (blood pressure amplification unit AP-641G; NIHON KODEN) and an analog-to-digital cinverter (MP-100; biopack) and recorded on a hard disc. The intravesical pressure was raised for 90 sec by setting the saline storage reservoir at a given height, and the presence or absence of saline leakage from the urethral orifice was observed. The intravesical pressure was raised every 2.5 cmH2O and, after 90 sec observation period, the intravesical pressure was once returned to 0 cmH2O, after which the next step was performed. The intravesical pressure at which the saline leakage from the urethral orifice was observed was taken as the leak point pressure. The measurement of the leak point pressure was repeated and the average of the final three measures was taken as the value before the drug administration. The drug was intravenously administered, and the leak point pressure was measured again 10 min later. The drug was dissolved in DMA-PEG400 (1:1), and administered at 0.5 ml/kg.

[4] = test system: urethane-anesthetized female rats; test: Antagonism of the leak point pressure increase by WAY-161503 / WAY-163909, direct bladder compression method (Example 4); conditions: agonist 0.3 mg/kg, i.v., antagonist: solvent, mean ± SEM
Protocol: SD female rats (body weight 180-350 g) were anesthetized with urethane (Wako Pure Chemical Industries, Ltd.), and halothane (Takeda Pharmaceutical Company Limited) anesthesia was added when necessary during operation.
The spinal cord was transected at T8-9 level to eliminate the reflex voiding. The lower abdomen was incised in the median line, a catheter for intravesical pressure measurement (PE-90, Clay Adams) was inserted into the bladder and secured with a ligature, and the intravesical pressure was measured via a pressure transducer. Urine was emptized in advance by bilaterally pressing the bladder with two swabs, and a 0.1% Evans blue (Merck) solution (0.4 mL) was injected into the bladder. The bladder was gradually compressed bilaterally with two swabs, and the intravesical pressure upon saline leakage from the urethral orifice was measured and defined as a leak point pressure. The measurement of the leak point pressure was repeated, and the average value of the final five stable measures was taken as the value before drug administration. Thereafter, the drug was intravenously administered, the leak point pressure was measured again 20 min later, and the value after the drug administration was determined. DOI, mCPP and eltoprazine were dissolved in saline, and other drugs were dissolved in DMA/PEG400 (1:1), and intravenously administered at 1 ml/kg and 0.5 mg/kg, respectively. Depending on the experiment, RS-102221 or SB221284 (showing serotonin 5-HT2C receptor antagonist activity) was administered, 5 min later, WAY-161503 or WAY-163909 was administered, leak point pressure was measured 10 min later, and a competitive assay with the action of WAY-161503 or WAY-163909 was performed. RS-102221 and SB221284 were both dissolved in DMA/PEG400 (1:1), and intravenously administered at 0.5 ml/kg.

Row | Structure (SMILES) | leak point pressure after drug administration ([1]; 0.03 mg/kg) [cmH2O] | leak point pressure increase ([1]; 0.03 mg/kg) [cmH2O] | leak point pressure after drug administration ([1]; 0.1 mg/kg) [cmH2O] | leak point pressure increase ([1]; 0.1 mg/kg) [cmH2O] | leak point pressure after drug administration ([1]; 0.3 mg/kg) [cmH2O] | leak point pressure increase ([1]; 0.3 mg/kg) [cmH2O] | leak point pressure before drug administration ([1]; dose group 0.03 mg/kg) [cmH2O] | leak point pressure before drug administration ([1]; dose group 0.1 mg/kg) [cmH2O] | leak point pressure before drug administration ([1]; dose group 0.3 mg/kg) [cmH2O] | effect on leak point pressure [1] | effect on urethral contractile responses during elevation of intravesical pressure [2] | leak point pressure after drug administration ([3]; 0.01 mg/kg) [cmH2O] | leak point pressure before drug administration ([3]; dose group 0.01 mg/kg) [cmH2O] | effect on leak point pressure [3] | other results
1 | CNCC[C@H](Oc1cccc2ccccc12)c1cccs1 [duloxetine] | 67.8 ± 2.9 | 6.5 ± 1.6 | 72.6 ± 3.4 | 9.3 ± 1.2 | 73.3 ± 3.9 | 8.8 ± 2.1 | 61.3 ± 3.3 | 63.3 ± 3.8 | 64.5 ± 3.5 | increased the leak point pressure | enhanced the urethral contractile responses | 42.8 ± 4.9 | 37.0 ± 4.5 | increased the leak point pressure | leak point pressure after drug administration ([1]; 0.01 mg/kg): 60.5 ± 5.1 cmH2O; leak point pressure increase ([1]; 0.01 mg/kg): 2.4 ± 2.6 cmH2O; leak point pressure after drug administration ([1]; 1 mg/kg): 75.0 ± 4.0 cmH2O; leak point pressure increase ([1]; 1 mg/kg): 13.9 ± 1.8 cmH2O; leak point pressure before drug administration ([1]; dose group 0.01 mg/kg): 58.1 ± 6.0 cmH2O; leak point pressure before drug administration ([1]; dose group 1 mg/kg): 61.1 ± 3.4 cmH2O; urethral contractile responses before administration ([2]; increase in intravesical pressure to 25 cmH2O, dose group 10 mg/kg i.v.): 8.5 ± 0.5 cmH2O; urethral contractile responses before administration ([2]; increase in intravesical pressure to 50 cmH2O, dose group 10 mg/kg i.v.): 13.4 ± 2.1 cmH2O; urethral contractile responses after administration ([2]; increase in intravesical pressure to 25 cmH2O, 10 mg/kg i.v.): 11.4 ± 0.6 cmH2O; urethral contractile responses after administration ([2]; increase in intravesical pressure to 50 cmH2O, 10 mg/kg i.v.): 17.8 ± 2.2 cmH2O; leak point pressure after drug administration ([3]; 0.001 mg/kg): 38.2 ± 3.7 cmH2O; leak point pressure before drug administration ([3]; dose group 0.001 mg/kg): 36.5 ± 4.2 cmH2O
2 | O=C1Nc2cc(Cl)c(Cl)cc2N2CCNCC12 (stereo not drawn) [WAY-161503] | 62.0 ± 5.8 | 7.1 ± 2.4 | 66.1 ± 2.8 | 11.5 ± 1.8 | 77.7 ± 3.6 | 22.0 ± 3.4 | 54.9 ± 6.1 | 54.7 ± 2.5 | 55.7 ± 3.8 | dose-dependently increased the leak point pressure | significant increase in the urethral contractile responses | 37.3 ± 3.5 | 33.4 ± 3.4 | increased the leak point pressure | leak point pressure after drug administration [4]: 87.1 ± 4.3 cmH2O; leak point pressure increase [4]: 17.4 ± 1.9 cmH2O; leak point pressure before drug administration ([4]; baseline): 69.7 ± 3.9 cmH2O; urethral contractile responses before administration ([2]; increase in intravesical pressure to 25 cmH2O, dose group 0.3 mg/kg i.v.): 7.0 ± 1.4 cmH2O; urethral contractile responses before administration ([2]; increase in intravesical pressure to 50 cmH2O, dose group 0.3 mg/kg i.v.): 12.8 ± 2.4 cmH2O; urethral contractile responses after administration ([2]; increase in intravesical pressure to 25 cmH2O, 0.3 mg/kg i.v.): 11.3 ± 1.8 cmH2O; urethral contractile responses after administration ([2]; increase in intravesical pressure to 50 cmH2O, 0.3 mg/kg i.v.): 19.2 ± 3.4 cmH2O; leak point pressure after drug administration ([3]; 0.03 mg/kg): 41.2 ± 3.0 cmH2O; leak point pressure after drug administration ([3]; 1 mg/kg): 43.6 ± 3.2 cmH2O; leak point pressure before drug administration ([3]; dose group 0.03 mg/kg): 34.8 ± 3.2 cmH2O; leak point pressure before drug administration ([3]; dose group 1 mg/kg): 34.8 ± 3.0 cmH2O
